From patent publication US8143394B2, “Pyrido(3,2-d)pyrimidines useful for treating viral infections” (Gilead Sciences, Inc., priority 2006, dated 2012)
Like-named read-outs stand apart in the source and are kept apart here.

How the values were obtained:
HCV replicon = test: Anti-HCV replicon assay (EC50, luciferase readout); type: cell-based; settings: human hepatoma Huh-7 cell line harbouring a HCV replicon, 3 days, luciferase, read-out: EC50
How it was run: (§1)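 Huh-7 cells bearing HCV replicon, 6000 per well, exposed 3 days at 37 °C to 3-fold compound dilutions (0.5% DMSO final where used). EC50 from luciferase luminescence after lysis; CC50 (50% growth inhibition) from CellTiter-Glo luminescence in parallel plates.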

Huh-7 HCV replicon cells = test: CC50 assay (CellTiter-Glo) in Huh-7 HCV replicon cells; type: cell-based, human; settings: 3 days, 50% cytostatic concentration
How it was run: as §1

[1] = as above; type: cell-based, human; settings: human, 50% cytostatic concentration
How it was run: as §1

| Compound | EC50 (HCV replicon) [µM] | CC50 (Huh-7 HCV replicon cells) [µM] | EC50 (HCV replicon; Hepatitis C virus, 72 h) [µM] | CC50 at 3 days [1] [µM] |
| --- | --- | --- | --- | --- |
| 4-ethoxy-6-(5-methyl-4H-[1,2,4]triazol-3-yl)-pyrido[3,2-d]pyrimidin-2-ylamine [Example 88] | 0.3 to 1 | 10 to 20 |  |  |
| CC(C)Oc1nc(N)nc2ccc(-c3ccc(C(=O)NC4CC4)c(Cl)c3)nc12 [Example 72, 4-(2-Amino-4-isopropoxy-pyrido[3,2-d]pyrimidin-6-yl)-2-chloro-N-cyclopropyl-benzamide] |  |  | > 1 | > 20 |
| CC(C)Oc1nc(N)nc2ccc(-c3ccc(C(=O)NC4CC4)cc3)nc12 [Example 73, 4-(2-Amino-4-isopropoxy-pyrido[3,2-d]pyrimidin-6-yl)-N-cyclopropyl-benzamide] |  |  | < 0.3 | > 20 |
| COc1nc(N)nc2ccc(-c3ccc(C(=O)NC4CC4)cc3)nc12 [Example 74, 4-(2-Amino-4-methoxy-pyrido[3,2-d]pyrimidin-6-yl)-N-cyclopropyl-benzamide] |  |  | 0.3 to 1 | 10 to 20 |
| COCCOc1nc(N)nc2ccc(-c3ccc(C(=O)NC(C)C)cc3)nc12 [Example 75, 4-[2-Amino-4-(2-methoxy-ethoxy)-pyrido[3,2-d]pyrimidin-6-yl]-N-isopropyl-benzamide] |  |  | 0.3 to 1 | > 20 |
| COCCOc1nc(N)nc2ccc(-c3ccc(C(=O)NOC)cc3)nc12 [Example 76, 4-[2-Amino-4-(2-methoxy-ethoxy)-pyrido[3,2-d]pyrimidin-6-yl]-N-methoxy-benzamide] |  |  | 0.3 to 1 | > 20 |
| CC(C)N1CCC(NC(=O)c2ccc(-c3ccc4nc(N)nc(O[C@H]5CCOC5)c4n3)cc2)CC1 [Example 77, 4-[2-Amino-4-(tetrahydro-furan-3-yloxy)-pyrido[3,2-d]pyrimidin-6-yl]-N-(1-isopropyl-piperidin-4-yl)-benzamide] |  |  | > 1 | > 20 |
| CN1CCCC1CCNC(=O)c1ccc(-c2ccc3nc(N)nc(O[C@H]4CCOC4)c3n2)cc1 (stereo partly drawn) [Example 78, 4-[2-Amino-4-(tetrahydro-furan-3-yloxy)-pyrido[3,2-d]pyrimidin-6-yl]-N-[2-(1-methyl-pyrrolidin-2-yl)-ethyl]-benzamide] |  |  | > 1 | > 20 |
| Nc1nc(O[C@H]2CCOC2)c2nc(-c3ccc(C(=O)NCCCN4CCCC4)cc3)ccc2n1 [Example 79, 4-[2-Amino-4-(tetrahydro-furan-3-yloxy)-pyrido[3,2-d]pyrimidin-6-yl]-N-(3-pyrrolidin-1-yl-propyl)-benzamide] |  |  | 0.3 to 1 | > 20 |
| CC(C)(CN1CCCC1)NC(=O)c1ccc(-c2ccc3nc(N)nc(O[C@H]4CCOC4)c3n2)cc1 [Example 80, 4-[2-Amino-4-(tetrahydro-furan-3-yloxy)-pyrido[3,2-d]pyrimidin-6-yl]-N-(1,1-dimethyl-2-pyrrolidin-1-yl-ethyl)-benzamide] |  |  | < 0.3 | 10 to 20 |
| CC(C)(CN1CCOCC1)NC(=O)c1ccc(-c2ccc3nc(N)nc(O[C@H]4CCOC4)c3n2)cc1 [Example 81, 4-[2-Amino-4-(tetrahydro-furan-3-yloxy)-pyrido[3,2-d]pyrimidin-6-yl]-N-(1,1-dimethyl-2-morpholin-4-yl-ethyl)-benzamide] |  |  | < 0.3 | > 20 |
| Nc1nc(O[C@H]2CCOC2)c2nc(-c3ccc(C(=O)NCC(F)(F)F)cc3)ccc2n1 [Example 82, 4-[2-Amino-4-(tetrahydro-furan-3-yloxy)-pyrido[3,2-d]pyrimidin-6-yl]-N-(2,2,2-trifluoro-ethyl)-benzamide] |  |  | < 0.3 | 10 to 20 |
| Nc1nc(O[C@H]2CCOC2)c2nc(-c3ccc(C(=O)NCCN4CCCC4)cc3)ccc2n1 [Example 83, 4-[2-Amino-4-(tetrahydro-furan-3-yloxy)-pyrido[3,2-d]pyrimidin-6-yl]-N-(2-pyrrolidin-1-yl-ethyl)-benzamide] |  |  | < 0.3 | > 20 |
| Nc1nc(O[C@H]2CCOC2)c2nc(-c3ccc(C(=O)NCCN4CCOCC4)cc3)ccc2n1 [Example 84, 4-[2-Amino-4-(tetrahydro-furan-3-yloxy)-pyrido[3,2-d]pyrimidin-6-yl]-N-(2-morpholin-4-yl-ethyl)-benzamide] |  |  | < 0.3 | > 20 |
| CCOc1nc(N)nc2ccc(-c3ccc(-c4nnc(C)o4)cc3)nc12 [Example 85, 4-Ethoxy-6-[4-(5-methyl-[1,3,4]oxadiazol-2-yl)-phenyl]-pyrido[3,2-d]pyrimidin-2-ylamine] |  |  | > 1 | > 20 |
| CCOc1nc(N)nc2ccc(-c3ccc(C(=O)Nc4ccc(F)cc4)cc3)nc12 [Example 86, 4-(2-Amino-4-ethoxy-pyrido[3,2-d]pyrimidin-6-yl)-N-(4-fluoro-phenyl)-benzamide] |  |  | 0.3 to 1 | > 20 |
| CCOc1nc(N)nc2ccc(-c3ccc(C(=O)Nc4ccccc4)cc3)nc12 [Example 87, 4-(2-Amino-4-ethoxy-pyrido[3,2-d]pyrimidin-6-yl)-N-phenyl-benzamide] |  |  | > 1 | > 20 |
| CCOc1nc(N)nc2ccc(-c3ccc(C(=O)NC4CC4)s3)nc12 [Example 89, 2-amino-4-ethoxy-6-(2-(N-(cyclopropyl)carbamoyl)-5-thiophenyl)pyrido[3,2-d]pyrimidine] |  |  | < 0.3 | > 20 |
